Experimental data taken from patent US20230056888A1, “COMPOSITIONS COMPRISING CYANIDIN-3-GALACTOSIDE FOR USE AS VASORELAXANT” (Evonik Operations GmbH, priority 2019, published 2023).
Entries after “also recorded” stand apart in the source; their conditions may differ.

Experiments:
mice mesenteric arteries = assay: Vascular reactivity of phenylephrine-precontracted mice mesenteric arteries, alone or with selective inhibitors; type: cell-based; conditions: for vasorelaxant effect in presence of Akt inhibitor: Akt inh 1 μM; for vasorelaxant effect in presence of Akt inhibitor / vasorelaxant effect in presence of PI3K inhibitor LY294002: 1 h; for vasorelaxant effect in presence of L-NAME (eNOS inhibitor): L-NAME 300 μM, 30 min pre-treatment; for vasorelaxant effect in presence of PI3K inhibitor LY294002: LY294002 10 μM; for direct vasorelaxant action of single anthocyanin, compared with Healthberry 865®: increasing doses 1-100 μg/mL; for vasorelaxation reached by single anthocyanin: dose-response curves 1-100 μg/mL
[1] = test system: nitric oxide production in mice mesenteric arteries; assay: Evaluation of NO production by DAF-FM in mesenteric arteries; type: cell-based; conditions: HB 50 μg/mL or 100 μg/mL; single anthocyanins 50 μg/mL; comparator acetylcholine 10^-6 M
Procedure: Production of NO was assessed as previously described (Carrizzo et al. 2016). Healthberry 865®-865 (100 μg/mL) or acetylcholine (10^-6 M) was administered to the mesenteric artery in the last 30 min of 4-amino-5-methylamino-2,7,-difluorofluorescein diacetate (DAF-FM) incubation, alone and after […] exposure to L-NAME (300 μmol/L, 30 min). Mesenteric segments were cut in 5-μm thick sections, observed under a fluorescence microscope, subsequently counterstained with haematoxylin and eosin and observed under a light microscope.
FIG. 2 D) show representative high-power micrographs of 10 μm sections of mice mesenteric arteries loaded for 2 h with […] (DAF-FM) reveal nitric oxide production after treatment with acetylcholine (Ach 10^-6 M) or HB (50 μg/mL) and after 30 min of pretreatment with L-NAME (300 μmol/L), counterstained with haematoxylin and eosin (HE). Scale bar, 50 μm. E) Semiquantitative analyses of immunoblots of mice mesenteric arteries treated with HB (100 μg/mL) alone, or HB plus Akt inhibitor or LY294002, columns are the mean±SEM of three independent experiments. Statistical analyses were performed using two-way ANOVA followed Bonferroni post-hoc test. *p<0.05; **p<0.01, ***p<0.001.
FIG. 7A-D show vascular response of phenylephrine-precontracted mice mesenteric arteries to increasing doses of a combination of anthocyanins mixed with a ratio 1:1. […]

[2] = test system: reactive oxygen species (ROS) in mouse mesenteric arteries; assay: Total ROS production (DHE / DHR123) in mesenteric arteries stimulated with Angiotensin II; type: cell-based; conditions: 50 μg/mL, 1 hour pre-treatment, then Angiotensin II 15 minutes, confirmed by DHR123
Procedure: Dihydroethidium (DHE, Life Technologies) was used to evaluate production of reactive oxygen species (ROS) in mouse mesenteric arteries, as previously described. Briefly, vessels were incubated with 5 μM of DHE for 20 min and subsequently observed under a fluorescence microscope (Zeiss). Images were acquired by a digital camera system (Olympus Soft Imaging Solutions). […] After treatment, vessels were incubated with Krebs solution containing 5 μM DHR123 for 30 min at 37° C., and then washed two times with PBS prior to fluorescence measurement using a fluorescence microplate reader (TECAN infinite 200 Pro).
(§1) Vessels were pre-treated with single anthocyanins (50 μg/mL) for 1 hours and then stimulated with Angiotensin II for 15 minutes prior to the acquisition. […] Data are expressed as increase of chemiluminescence per minute.
(§2) Data are expressed as increase of chemiluminescence per minute. Statistical analysis were performed using One-way ANOVA followed Bonferroni post-hoc test.

NADPH oxidase = NADPH oxidase activity (lucigenin-enhanced chemiluminescence) in mesenteric arteries after Angiotensin II; type: cell-based, mice; conditions: for NADPH oxidase (NOX) activity after stimulation with Angiotensin II: single anthocyanins 50 μg/mL, smaller reduction than Healthberry 865®
Procedure: Vessels were homogenized in a buffer containing protease inhibitors (mmol/L: 20 monobasic potassium phosphate, 1 EGTA, 0.01 aprotinin, 0.01 leupeptin, 0.01 pepstatin, 0.5 phenylmethylsulfonyl fluoride, pH 7.0). Protein content was measured in an aliquot of the homogenate by Bradford method. In some experiments, cells and vessels were pre-incubated with pharmacological inhibitors before measurements. The reaction was started by the addition of NADPH (0.1 mmol/l) and lucigenin (5 μmol/l) to each well. The chemiluminescence was measured using Tecan Infinite Pro M200 multimode microplate at 37° C.
as §1, §2

Compound | direct vasorelaxant action of single anthocyanin, compared with Healthberry 865® (mice mesenteric arteries) | Angiotensin II-induced ROS formation [2] | NADPH oxidase (NOX) activity after stimulation with Angiotensin II (NADPH oxidase) | further results
OC[C@H]1OC(Oc2cc3c(O)cc(O)cc3[o+]c2-c2ccc(O)c(O)c2)[C@H](O)C(O)C1O (stereo partly shown) [C3-gal, Cyanidin-3-galactoside] | able to reproduce the direct vasorelaxant effect |  |  | vasorelaxant effect in presence of Dorsomorphin (AMPK inhibitor) (mice mesenteric arteries): completely lost its vasorelaxant capability; vasorelaxant effect in presence of Akt inhibitor (mice mesenteric arteries): did not inhibit; vasorelaxant effect in presence of L-NAME (eNOS inhibitor) (mice mesenteric arteries): significantly reduced; vasorelaxant effect in presence of PI3K inhibitor LY294002 (mice mesenteric arteries): did not inhibit; nitric oxide production (DAF-FM fluorescence) [1]: significant increase of nitric oxide production
OC[C@H]1O[C@@H](Oc2cc3c(O)cc(O)cc3[o+]c2-c2ccc(O)c(O)c2)[C@H](O)[C@@H](O)[C@@H]1O [C3-glu, Cyanidin-3-glucoside] | none of the single anthocyanins was able to evoke a dose-dependent vasorelaxation comparable | able to reproduce the antioxidant action | able to reduce NOX activity | rank of NOX activity reduction among single anthocyanins relative to Healthberry 865® (NADPH oxidase): most powerful anthocyanins
C[C@@H]1O[C@@H](OC[C@H]2O[C@@H](Oc3cc4c(O)cc(O)cc4[o+]c3-c3ccc(O)c(O)c3)[C@H](O)[C@@H](O)[C@@H]2O)[C@H](O)[C@H](O)[C@H]1O [C3-rut, Cyanidin-3-rutinoside] | none of the single anthocyanins was able to evoke a dose-dependent vasorelaxation comparable; also recorded: vasorelaxant effects | able to reproduce the antioxidant action | able to reduce NOX activity | vasorelaxation reached by single anthocyanin (mice mesenteric arteries): ~36.5%
Oc1cc(O)c2cc(O[C@H]3OC[C@H](O)[C@H](O)[C@H]3O)c(-c3cc(O)c(O)c(O)c3)[o+]c2c1 [DP3-ara, Delphinidin-3-arabinoside] | none of the single anthocyanins was able to evoke a dose-dependent vasorelaxation comparable; also recorded: vasorelaxant effects |  |  | 
OC[C@H]1O[C@@H](Oc2cc3c(O)cc(O)cc3[o+]c2-c2cc(O)c(O)c(O)c2)[C@H](O)[C@@H](O)[C@H]1O [DP3-gal, Delphinidin-3-galactoside] | none of the single anthocyanins was able to evoke a dose-dependent vasorelaxation comparable; also recorded: vasorelaxant effects |  |  | vasorelaxation reached by single anthocyanin (mice mesenteric arteries): about 32.5%
OC[C@H]1O[C@@H](Oc2cc3c(O)cc(O)cc3[o+]c2-c2cc(O)c(O)c(O)c2)[C@H](O)[C@@H](O)[C@@H]1O [DP3-glu, Delphinidin-3-glucoside] | none of the single anthocyanins was able to evoke a dose-dependent vasorelaxation comparable | able to reproduce the antioxidant action | able to reduce NOX activity | 
OC[C@H]1O[C@@H](Oc2cc3c(O)cc(O)cc3[o+]c2-c2cc(O)c(O)c(O)c2)[C@H](O[C@@H]2OC[C@@H](O)[C@H](O)[C@H]2O)[C@@H](O)[C@@H]1O [DP3-samb, Delphinidin-3-sambubioside] | able to reproduce the direct vasorelaxant effect |  |  | vasorelaxant effect in presence of Dorsomorphin (AMPK inhibitor) (mice mesenteric arteries): inhibited; vasorelaxant effect in presence of Akt inhibitor (mice mesenteric arteries): did not influence; vasorelaxant effect in presence of L-NAME (eNOS inhibitor) (mice mesenteric arteries): significantly reduced; vasorelaxant effect in presence of PI3K inhibitor LY294002 (mice mesenteric arteries): inhibited; nitric oxide production (DAF-FM fluorescence) [1]: significant increase of nitric oxide production
COc1cc(-c2[o+]c3cc(O)cc(O)c3cc2O[C@@H]2O[C@H](CO)[C@H](O)[C@H](O)[C@H]2O)cc(OC)c1O [MAL3-gal, Malvidin-3-galactoside] | none of the single anthocyanins was able to evoke a dose-dependent vasorelaxation comparable | able to reproduce the antioxidant action | able to reduce NOX activity | 
COc1cc(-c2[o+]c3cc(O)cc(O)c3cc2O[C@@H]2O[C@H](CO)[C@@H](O)[C@H](O)[C@H]2O)cc(OC)c1O [MAL3-glu, Malvidin-3-glucoside] | none of the single anthocyanins was able to evoke a dose-dependent vasorelaxation comparable | able to reproduce the antioxidant action | able to reduce NOX activity | rank of NOX activity reduction among single anthocyanins relative to Healthberry 865® (NADPH oxidase): most powerful anthocyanins
COc1cc(-c2[o+]c3cc(O)cc(O)c3cc2O[C@@H]2O[C@H](CO)[C@@H](O)[C@H](O)[C@H]2O)cc(O)c1O [PT3-glu, Petunidin-3-glucoside] | none of the single anthocyanins was able to evoke a dose-dependent vasorelaxation comparable |  |  | 
Peonidin-3-galactoside [PEO3-gal] | none of the single anthocyanins was able to evoke a dose-dependent vasorelaxation comparable | able to reproduce the antioxidant action | able to reduce NOX activity | 
